According to ChEMBL document CHEMBL1759900, “Inhibition of nitric oxide production in lipopolysaccharide-stimulated RAW264.7 macrophage cells by lignans isolated from Euonymus alatus leaves and twigs” (Bioorg Med Chem Lett, 2011):

Tested on: RAW264.7
Assay: Inhibition of LPS-induced nitric oxide production in mouse RAW264.7 cells preincubated with compound for 1 hr before exposure to LPS measured after 24 hrs by Griess reaction method
Type: functional, cell-based

SMILES | IC50 [µM]
COc1cc([C@@H]2c3c(cc(OC)c(O)c3OC)C[C@@H](CO)[C@@H]2CO)cc(OC)c1O | 55.5
COc1cc([C@H]2Oc3c(OC)cc(/C=C/CO)cc3[C@@H]2CO)cc(OC)c1O | 11.7
COc1cc([C@H]2OC[C@H]3[C@@H]2CO[C@@H]3c2cc(OC)c(OC)c(OC)c2)cc(OC)c1O | 15.8
COc1cc([C@@H]2Oc3c(OC)cc(/C=C/CO)cc3[C@H]2CO)cc(OC)c1O | 12.8
COc1cc([C@H]2Oc3c(OC)cc(/C=C/CO)cc3[C@@H]2CO)ccc1O | 9.3
COc1cc([C@@H]2Oc3c(OC)cc(/C=C/CO)cc3[C@H]2CO)ccc1O [DEHYDROCONIFERYL ALCOHOL] | 8.5
COc1cc([C@H]2Oc3c(OC)cc(CCCO)cc3[C@@H]2CO)ccc1O [DIHYDRODEHYDRODICONIFERY ALCOHOL] | 9.8
COc1cc(C(O)C(CO)Oc2c(OC)cc(C3OCC4C(c5cc(OC)c(OC(CO)C(O)c6ccc(O)c(OC)c6)c(OC)c5)OCC34)cc2OC)ccc1O (stereo not given) [HEDYOTISOL B] | > 100
COc1cc([C@H]2OC[C@H]3[C@@H]2CO[C@@H]3c2cc(OC)c(O[C@H](CO)[C@@H](O)c3ccc(O)c(OC)c3)c(OC)c2)ccc1O [HEDYOTOL C] | 21.4
COC(=O)[C@@H](N)CCCNC(=N)N[N+](=O)[O-] [L-NAME] | 48.5
COc1cc([C@H]2OC[C@H]3[C@@H]2CO[C@@H]3c2cc(OC)c(O)c(OC)c2)cc(OC)c1O [SYRINGARESINOL] | 14.8

Next, values leading:

IC50 [µM] | SMILES
58.2 | COc1cc([C@H](O)[C@H](CO)Oc2c(OC)cc(/C=C/CO)cc2OC)ccc1O
63.4 | COc1cc([C@@H](O)[C@@H](CO)Oc2ccc(CCCO)cc2OC)ccc1O
41.9 | COc1cc(CC(CO)OC(CO)C(OC)c2cc(OC)c(O)c(OC)c2)ccc1O (stereo not given)
63.6 | COc1cc([C@@H](O)[C@H](CO)Oc2ccc(/C=C/CO)cc2OC)ccc1O
57.9 | COc1cc([C@H](O)[C@@H](CO)Oc2c(OC)cc(/C=C/CO)cc2OC)cc(OC)c1O
69.2 | COc1cc([C@H](O)[C@H](CO)Oc2ccc(CCCO)cc2OC)ccc1O
21.3 | COc1cc(C(O)C(CO)Oc2c(OC)cc(C3Oc4c(OC)cc(/C=C/CO)cc4C3CO)cc2OC)ccc1O (stereo not given)
66.4 | COc1cc([C@H](O)[C@@H](CO)Oc2ccc(/C=C/CO)cc2OC)ccc1O
44.3 | COc1cc(C(OC)C(CO)OC(CO)Cc2cc(OC)c(O)c(OC)c2)ccc1O (single isomer, unassigned; (-))
